Converted amounts (≈) assume the structure as drawn. Like-named read-outs stand apart in the source and are kept apart here.
Experiments:
Assay type in all cases: cell-based
[1] = test system: Staphylococcus aureus 209-P; test: In vitro antibacterial activity, Staphylococcus aureus 209-P (Tables 2-6)
Experimental: (§1) Typical compounds out of the compounds described in Examples were classified into some groups. On each compound group, in vitro antibacterial activities were tested by a method known per se in the art.

Escherichia coli NIHJ = test: In vitro antibacterial activity, Escherichia coli NIHJ (Tables 2-6)
Experimental: as §1

[2] = test system: Klebsiella pneumoniae EK-6; test: In vitro antibacterial activity, Klebsiella pneumoniae EK-6 (Tables 2-6)
Experimental: as §1

[3] = test system: Morganella morganii EP-14; test: In vitro antibacterial activity, Morganella morganii EP-14 (Tables 2-6)
Experimental: as §1

[4] = test system: Serratia marcescens ES-75; test: In vitro antibacterial activity, Serratia marcescens ES-75 (Tables 2-6)
Experimental: as §1

[5] = Staphylococcus aureus, 209P, Staphylococcus aureus 209-P, read-out: MIC
[6] = Escherichia coli, Escherichia coli NIHJ, read-out: MIC
[7] = Klebsiella pneumoniae, EK6, Klebsiella pneumoniae EK-6, read-out: MIC
[8] = Morganella morganii, EP14, Morganella morganii EP-14, read-out: MIC
[9] = Serratia marcescens, ES75, Serratia marcescens ES-75, read-out: MIC

Structure (SMILES) | MIC [1, 5] | MIC (Escherichia coli NIHJ; [6]) | MIC [2, 7] | MIC ([1]; Staphylococcus aureus, 209P) | MIC (Escherichia coli NIHJ; Escherichia coli) | MIC ([2]; Klebsiella pneumoniae, EK6) | MIC ([3]; Morganella morganii, EP14) | MIC ([4]; Serratia marcescens, ES75) | also measured
CO/N=C(\C(=O)N[C@@H]1C(=O)N2C(C(=O)O)=C(/C=C/C3CCCO3)CS[C@H]12)c1csc(N)n1 (single isomer, unassigned) [48 A] | 0.4 µg/mL (≈ 0.834 µM) | 0.4 µg/mL (≈ 0.834 µM) | 0.2 µg/mL (≈ 0.417 µM) |  |  |  |  |  | MIC ([3]; Morganella morganii EP-14): 0.025 µg/mL (≈ 0.0521 µM); MIC ([4]; Serratia marcescens ES-75): 0.025 µg/mL (≈ 0.0521 µM)
CO/N=C(\C(=O)N[C@@H]1C(=O)N2C(C(=O)O)=C(/C=C/C3CCCO3)CS[C@H]12)c1csc(N)n1 (single isomer, unassigned) [48 B] |  |  |  |  |  |  |  |  | MIC ([1]; Staphylococcus aureus 209-P): 0.8 µg/mL (≈ 1.67 µM); MIC (Escherichia coli NIHJ; Escherichia coli NIHJ): 0.8 µg/mL (≈ 1.67 µM); MIC ([2]; Klebsiella pneumoniae EK-6): 0.4 µg/mL (≈ 0.834 µM); MIC ([3]; Morganella morganii EP-14): 0.2 µg/mL (≈ 0.417 µM); MIC ([4]; Serratia marcescens ES-75): 0.1 µg/mL (≈ 0.209 µM)
Nc1nc(/C(=N/O)C(=O)N[C@@H]2C(=O)N3C(C(=O)O)=C(/C=C/C4CCCO4)CS[C@H]23)cs1 (single isomer, unassigned) [50 A] | 0.1 µg/mL (≈ 0.215 µM) |  | 0.2 µg/mL (≈ 0.43 µM) |  |  |  |  |  | MIC (Escherichia coli NIHJ; Escherichia coli NIHJ): 0.2 µg/mL (≈ 0.43 µM); MIC ([3]; Morganella morganii EP-14): 0.05 µg/mL (≈ 0.107 µM); MIC ([4]; Serratia marcescens ES-75): 0.1 µg/mL (≈ 0.215 µM)
Nc1nc(/C(=N/O)C(=O)N[C@@H]2C(=O)N3C(C(=O)O)=C(/C=C/C4CCCO4)CS[C@H]23)cs1 (single isomer, unassigned) [50 B] |  |  |  |  |  |  |  |  | MIC ([1]; Staphylococcus aureus 209-P): 0.1 µg/mL (≈ 0.215 µM); MIC (Escherichia coli NIHJ; Escherichia coli NIHJ): 0.8 µg/mL (≈ 1.72 µM); MIC ([2]; Klebsiella pneumoniae EK-6): 0.4 µg/mL (≈ 0.859 µM); MIC ([3]; Morganella morganii EP-14): 0.2 µg/mL (≈ 0.43 µM); MIC ([4]; Serratia marcescens ES-75): 0.4 µg/mL (≈ 0.859 µM)
CO/N=C(\C(=O)N[C@@H]1C(=O)N2C(C(=O)O)=C(/C=C\c3cncnc3)CS[C@H]12)c1csc(N)n1 [Example 14] | 0.8 µg/mL (≈ 1.64 µM) | 0.4 µg/mL (≈ 0.82 µM) | 0.2 µg/mL (≈ 0.41 µM) |  |  |  |  |  | MIC [3, 8]: 0.05 µg/mL (≈ 0.103 µM); MIC [4, 9]: 0.8 µg/mL (≈ 1.64 µM)
Nc1nc(/C(=N/O)C(=O)N[C@@H]2C(=O)N3C(C(=O)[O-])=C(/C=C\c4cncnc4)CS[C@H]23)cs1.[Na+] [Example 16, Sodium 7β-[(Z)-2-(2-aminothiazol-4-yl)-2-(hydroxyimino)acetamido]-3-[(Z)-2 (pyrimidin-5-yl)vinyl]-3-cephem-4-carboxylate] |  |  |  | 0.2 µg/mL | 0.1 µg/mL | 0.05 µg/mL | 0.012 µg/mL | > 100 µg/mL | 
Cc1ncc(/C=C\C2=C(C(=O)O)N3C(=O)[C@@H](NC(=O)/C(=N\O)c4csc(N)n4)[C@H]3SC2)cn1 [Example 21] | 0.2 µg/mL (≈ 0.41 µM) | 0.2 µg/mL (≈ 0.41 µM) | 0.1 µg/mL (≈ 0.205 µM) |  |  |  |  |  | MIC [3, 8]: 0.025 µg/mL (≈ 0.0513 µM); MIC [4, 9]: 0.2 µg/mL (≈ 0.41 µM)
Nc1nc(/C(=N/O)C(=O)N[C@@H]2C(=O)N3C(C(=O)[O-])=C(/C=C/c4cncnc4N)CS[C@H]23)cs1.[Na+] [Example 23, Sodium 7β[(Z)-2-(2-aminothiazol-4-yl)-2-(hydroxyimino)acetamido]-3-[(E)-2-(4-aminopyrimidin-5-yl)vinyl]-3-cephem-4-carboxylate] |  |  |  | 0.2 µg/mL | 0.4 µg/mL | 0.025 µg/mL | 0.012 µg/mL | > 100 µg/mL | 
COc1ncncc1/C=C\C1=C(C(=O)[O-])N2C(=O)[C@@H](NC(=O)/C(=N\O)c3csc(N)n3)[C@H]2SC1.[Na+] [Example 25, Sodium 7β-[(Z)-2-(2-aminothiazol-4-yl)-2-(hydroxyimino)acetamido]-3-[(Z)-2-(4-methoxypyrimidin-5-yl)vinyl]-3-cephem-4-carboxylate] |  |  |  | 0.2 µg/mL | 0.8 µg/mL | 0.4 µg/mL | 0.1 µg/mL | 0.2 µg/mL | 
CO/N=C(\C(=O)N[C@@H]1C(=O)N2C(C(=O)[O-])=C(/C=C/c3cnccn3)CS[C@H]12)c1csc(N)n1.[Na+] [Example 27, Sodium 7β-[(Z)-2-(2-aminothiazol-4-yl)-2-(methoxyimino)acetamido]-3-[(E)-2-(pyrazin-2-yl)vinyl]-3-cephem-4-carboxylate] |  |  |  | 0.8 µg/mL | 0.2 µg/mL | 0.1 µg/mL | 0.05 µg/mL | 0.05 µg/mL | 
CO/N=C(\C(=O)N[C@@H]1C(=O)N2C(C(=O)O)=C(/C=C/c3c(Cl)ncnc3Cl)CS[C@H]12)c1csc(N)n1 [Example 29 (E)] |  |  |  |  |  |  |  |  | MIC [3, 8]: 0.4 µg/mL (≈ 0.719 µM); MIC [4, 9]: 6.25 µg/mL (≈ 11.2 µM)
CO/N=C(\C(=O)N[C@@H]1C(=O)N2C(C(=O)[O-])=C(/C=C\c3c(Cl)ncnc3Cl)CS[C@H]12)c1csc(N)n1.[Na+] [Example 29 (Z), Sodium 7β-[(Z)-2-(2-aminothiazol-4-yl)-2-(methoxyimino)acetamido]-3-[(Z)-2-(4,6-dichloropyrimidin-5-yl)vinyl]-3-cephem-4-carboxylate] |  |  |  | 1.56 µg/mL | 3.13 µg/mL | 7.56 µg/mL | 0.8 µg/mL | 3.13 µg/mL | 
CN(C)C(=O)OC/C=C\C1=C(C(=O)[O-])N2C(=O)C(NC(=O)/C(=N\O)c3csc(N)n3)[C@H]2SC1.[Na+] (stereo partly shown) [Example 30, Sodium 7-[(Z)-2-(2-aminothiazol-4-yl)-2-hydroxyiminoacetamido]-3-[(Z)-3-(N,N-dimethylcarbamoyloxy)-1-propenyl]-3-cephem-4-carboxylate] |  |  |  | 0.2 µg/mL | 0.2 µg/mL | 0.2 µg/mL | 0.05 µg/mL | 0.05 µg/mL | 
Nc1nc(/C(=N/O)C(=O)NC2C(=O)N3C(C(=O)O)=C(/C=C\COC(=O)N4CCOCC4)CSC23)cs1 (stereo not shown) [Example 32, Sodium 7-[(Z)-2-(2-aminothiazol-4-yl)-2-hydroxyiminoacetamido]-3-[(Z)-3-(1-morphorinylcarbonyloxy)-1-propenyl]-3-cephem-4-carboxylate] | 0.2 µg/mL | 0.2 µg/mL | 0.1 µg/mL |  |  |  |  |  | 
CNC(=O)OC/C=C\C1=C(C(=O)[O-])N2C(=O)C(NC(=O)/C(=N\O)c3csc(N)n3)[C@H]2SC1.[Na+] (stereo partly shown) [Example 33, Sodium 7-[(Z)-2-(2-aminothiazol-4-yl)-2-hydroxyiminoacetamido]-3-[(Z)-3-(N-methylcarbamoyloxy)-1-propenyl]-3-cephem-4-carboxylate] |  |  |  | 0.1 µg/mL | 0.025 µg/mL | 0.012 µg/mL | ≤ 0.006 µg/mL | 0.025 µg/mL | 
CNC(=O)OC/C=C\C1=C(C(=O)O)N2C(=O)C(NC(=O)/C(=N\OC)c3csc(N)n3)C2SC1 (stereo not shown) [Example 38] | 0.8 µg/mL (≈ 1.61 µM) | 0.2 µg/mL (≈ 0.403 µM) | 0.05 µg/mL (≈ 0.101 µM) |  |  |  |  |  | MIC [3, 8]: 0.012 µg/mL (≈ 0.0242 µM); MIC [4, 9]: 0.05 µg/mL (≈ 0.101 µM)
CC(C)NC(=O)OC/C=C\C1=C(C(=O)[O-])N2C(=O)C(NC(=O)/C(=N\O)c3csc(N)n3)[C@H]2SC1.[Na+] (stereo partly shown) [Example 40, Sodium 7-[(Z)-2-(2-aminothiazol-4-yl)-2-hydroxyiminoacetamido]-3-[(Z)-3-(N-isopropylcarbamoyloxy)-1-propenyl]-3-cephem-4-carboxylate] |  |  |  | 0.2 µg/mL | 0.1 µg/mL | 0.1 µg/mL | 0.025 µg/mL | 0.05 µg/mL | 
CCNC(=O)OC/C=C\C1=C(C(=O)[O-])N2C(=O)C(NC(=O)/C(=N\O)c3csc(N)n3)[C@H]2SC1.[Na+] (stereo partly shown) [Example 42, Sodium 7-[(Z)-2-(2-aminothiazol-4-yl)-2-hydroxyiminoacetamido]-3-[(Z)-3-(N-ethylcarbamoyloxy)-1-propenyl]-3-cephem-4-carboxylate] |  |  |  | 0.1 µg/mL | 0.05 µg/mL | 0.05 µg/mL | ≤ 0.006 µg/mL | 0.05 µg/mL | 
Nc1nc(/C(=N/O)C(=O)NC2C(=O)N3C(C(=O)[O-])=C(/C=C\COC(=O)NCCCl)CS[C@H]23)cs1.[Na+] (stereo partly shown) [Example 44, Sodium 7-[(Z)-2-(2-aminothiazol-4-yl)-2-hydroxyiminoacetamido]-3-[(Z)-3-(N-(2-chloroethyl)carbamoyloxy)-1-propenyl]-3-cephem-4-carboxylate] |  |  |  | 0.1 µg/mL | 0.05 µg/mL | 0.05 µg/mL | ≤ 0.006 µg/mL | 0.05 µg/mL | 
C=CCNC(=O)OC/C=C\C1=C(C(=O)O)N2C(=O)C(NC(=O)/C(=N\O)c3csc(N)n3)C2SC1 (stereo not shown) [Example 46, Sodium 7-[(Z)-2-(2-aminothiazol-4-yl)-2-hydroxyiminoacetamido]-3-[(Z)-30(N-allylcarbamoyloxy)-1-propenyl] -3-cephem-4-carboxylate] | 0.2 µg/mL | 0.1 µg/mL | 0.05 µg/mL |  |  |  |  |  | MIC [3, 8]: 0.012 µg/mL; MIC [4, 9]: 0.05 µg/mL
CO/N=C(\C(=O)N[C@@H]1C(=O)N2C(C(=O)[O-])=C(/C=C\C3CCCO3)CS[C@H]12)c1csc(N)n1.[Na+] (stereo partly drawn) [Example 49, Sodium 7β-[(Z)-2-aminothiazol-4-yl-2-methoxyiminoacetamido]-3-[(Z)-2-(tetrahydrofuran-2-yl)vinyl]-3-cephem-4-carboxylate] |  |  |  | 1.56 µg/mL | 0.8 µg/mL | 0.4 µg/mL | 0.1 µg/mL | 0.05 µg/mL | 
CO/N=C(\C(=O)N[C@@H]1C(=O)N2C(C(=O)[O-])=C(/C=C/C3CCC(=O)O3)CS[C@H]12)c1csc(N)n1.[Na+] (stereo partly drawn) [Example 52, Sodium 7β-[(Z)-2-aminothiazol-4-yl-2-methoxyiminoacetamido]-3-[(E)-2-(5-oxotetrahydrofuran 2-yl)vinyl]-3-cephem-4-carboxylate] |  |  |  | 0.4 µg/mL | 0.1 µg/mL | 0.025 µg/mL | ≤ 0.006 µg/mL | 0.012 µg/mL | 
CO/N=C(\C(=O)N[C@@H]1C(=O)N2C(C(=O)OCOC(=O)C(C)(C)C)=C(/C=C/C3CCC(=O)O3)CS[C@H]12)c1csc(N)n1 (stereo partly drawn) [Example 53, Pivaloyloxymethyl 7β-[(Z)-2-aminothiazol-4-yl-2-methoxyiminoacetamido]-3-[(E)-2-(5 oxotetrahydrofuran-2-yl)vinyl]-3-cephem-4-carboxylate] | 0.1 µg/mL (≈ 0.165 µM) | 0.025 µg/mL (≈ 0.0411 µM) | 0.025 µg/mL (≈ 0.0411 µM) |  |  |  |  |  | MIC [3, 8]: 0.025 µg/mL (≈ 0.0411 µM); MIC [4, 9]: 0.05 µg/mL (≈ 0.0823 µM)
CC(C)(C)C(=O)OCOC(=O)C1=C(/C=C\C2CC2)CS[C@@H]2[C@H](NC(=O)/C(=N\O)c3csc(N)n3)C(=O)N12 [Example 58, Pivaloyloxymethyl 7-62-[(Z)-2-(2-aminothiazol-4-yl)-2-hydroxyiminoacetamido]-3-[(Z)-cyclopropylvinyl]-3-cephem-4-carboxylate] | 0.1 µg/mL (≈ 0.182 µM) | 0.4 µg/mL (≈ 0.728 µM) | 0.2 µg/mL (≈ 0.364 µM) |  |  |  |  |  | MIC [3, 8]: 0.1 µg/mL (≈ 0.182 µM); MIC [4, 9]: 0.8 µg/mL (≈ 1.46 µM)

Reference: patent US5151417A, “3-substituted vinyl cephalosporin derivatives” (Eisai Co., Ltd., priority 1989, dated 1992)
